Results taken from patent US9884818B2, “Sulphamoylpyrrolamide derivatives and the use thereof as medicaments for the treatment of hepatitis B” (Janssen Sciences Ireland UC, priority 2013, dated 2018).

Key:
[1] = tested on: HBV; test: Anti-HBV activity, HepG2.2.15 stable transfected cell line, HBV DNA from secreted virions by realtime PCR; assay type: cell-based; conditions: Hepatitis B virus, HepG2.2.15, 144 h, HepG2.2.15 cells, 6 days of treatment, HBV DNA from secreted virions; read-out: HepG2 2.15 EC50
[2] = tested on: HBV; test: Anti-HBV activity, HepG2.117 inducibly HBV producing cell line (Tet-off), intracellular HBV DNA by realtime PCR; assay type: cell-based; conditions: Hepatitis B virus, HepG2.117, 72 h, HepG2.117 cells, 3 days of treatment, intracellular HBV DNA; read-out: HepG2 117 EC50
[3] = Cytotoxicity in HepG2 cells, Resazurin viability assay; conditions: human, HepG2 cells, HepG2 4 days CC50 (μM), incubated for 4 days, Resazurin assay

Cc1cc(NC(=O)c2cc(S(=O)(=O)NC3(C)COC3)cn2C)cc(C(F)(F)F)c1F [Compound 79, N-[4-Fluoro-3-methyl-5-(trifluoromethyl)phenyl]-1-methyl-4-[(3-methyloxetan-3-yl)sulfamoyl]-1H-pyrrole-2-carboxamide]
EC50 [1]: 0.53 µM | EC50 [2]: 0.46 µM | CC50 at 4 days [3]: > 25 µM

Cc1cc(NC(=O)c2cc(S(=O)(=O)NC3(C)COC3)cn2C)cc(C)c1F [Compound 80, N-(4-Fluoro-3,5-dimethylphenyl)-1-methyl-4-[(3-methyloxetan-3-yl)sulfamoyl]-1H-pyrrole-2-carboxamide]
EC50 [1]: 0.04 µM | EC50 [2]: 0.09 µM | CC50 at 4 days [3]: > 25 µM

Cn1cc(S(=O)(=O)NC2(C)COC2)cc1C(=O)Nc1ccc(F)c(Br)c1 [Compound 81]
EC50 [1]: 0.01 µM | EC50 [2]: 0.05 µM | CC50 at 4 days [3]: > 25 µM

Cc1cc(NC(=O)c2cc(S(=O)(=O)NC3(C)COC3)cn2C)cc(C(F)(F)F)c1 [Compound 82, 1-Methyl-4-[(3-methyloxetan-3-yl)sulfamoyl]-N-[3-methyl-5-(trifluoro-methyl)phenyl]-1H-pyrrole-2-carboxamide]
EC50 [1]: 0.17 µM | EC50 [2]: 0.49 µM | CC50 at 4 days [3]: > 25 µM

Cc1cc(NC(=O)c2cc(S(=O)(=O)NC3(C)COC3)cn2C)ccc1C#N [Compound 83]
EC50 [1]: > 1 µM | EC50 [2]: 1.35 µM | CC50 at 4 days [3]: > 25 µM

Cn1cc(S(=O)(=O)NC2(C)COC2)cc1C(=O)Nc1ccc(Cl)c(F)c1 [Compound 84]
EC50 [1]: 0.46 µM | EC50 [2]: 0.61 µM | CC50 at 4 days [3]: > 25 µM

Cc1c(F)ccc(NC(=O)c2cc(S(=O)(=O)NC3(C)COC3)cn2C)c1F [Compound 85, N-(2,4-Difluoro-3-methylphenyl)-1-methyl-4-[(3-methyloxetan-3-yl)sulfamoyl]-1H-pyrrole-2-carboxamide]
EC50 [1]: 0.03 µM | EC50 [2]: 0.05 µM | CC50 at 4 days [3]: > 25 µM

Cn1cc(S(=O)(=O)NC2(C)COC2)cc1C(=O)Nc1ccc(F)c(OC(F)(F)F)c1 [Compound 86, N-[4-Fluoro-3-(trifluoromethoxy)phenyl]-1-methyl-4-[(3-methyloxetan-3-yl)sulfamoyl]-1H-pyrrole-2-carboxamide]
EC50 [1]: 0.37 µM | EC50 [2]: 0.35 µM | CC50 at 4 days [3]: > 25 µM

Cn1cc(S(=O)(=O)NC2(C)COC2)cc1C(=O)Nc1cc(Cl)cc(C#N)c1 [Compound 87, N-(3-Chloro-5-cyanophenyl)-1-methyl-4-[(3-methyloxetan-3-yl)sulfamoyl]-1H-pyrrole-2-carboxamide]
EC50 [1]: 0.96 µM | EC50 [2]: > 1 µM | CC50 at 4 days [3]: > 25 µM

Cc1cc(NC(=O)c2c(C)c(S(=O)(=O)NC3(C)COC3)c(C)n2C)ccc1F [Compound 88, N-(4-Fluoro-3-methylphenyl)-1,3,5-trimethyl-4-[(3-methyloxetan-3-yl)sulfamoyl]-1H-pyrrole-2-carboxamide]
EC50 [1]: 0.02 µM | EC50 [2]: 0.03 µM | CC50 at 4 days [3]: > 25 µM

Cc1cc(NC(=O)c2cc(S(=O)(=O)NC3(C)COC3)c(C)n2C)ccc1F [Compound 89, N-(4-Fluoro-3-methylphenyl)-1,5-dimethyl-4-[(3-methyloxetan-3-yl)sulfamoyl]-1H-pyrrole-2-carboxamide]
EC50 [1]: 0.02 µM | EC50 [2]: 0.02 µM | CC50 at 4 days [3]: > 25 µM

Cc1cc(NC(=O)c2c(C)c(S(=O)(=O)NC3(C)COC3)cn2C)ccc1F [Compound 90, N-(4-Fluoro-3-methylphenyl)-1,3-dimethyl-4-[(3-methyloxetan-3-yl)sulfamoyl]-1H-pyrrole-2-carboxamide]
EC50 [1]: 0.05 µM | EC50 [2]: 0.03 µM | CC50 at 4 days [3]: > 25 µM

Cn1cc(S(=O)(=O)NC2(C)CCOC2)cc1C(=O)Nc1ccc(F)c(F)c1 (stereo not drawn) [Compound 91, N-(3,4-Difluorophenyl)-1-methyl-4-[(3-methyltetrahydrofuran-3-yl)sulfamoyl]-1H-pyrrole-2-carboxamide]
EC50 [1]: 0.06 µM | EC50 [2]: 0.04 µM | CC50 at 4 days [3]: > 25 µM

C[C@@H](NS(=O)(=O)c1cc(C(=O)Nc2ccc(F)c(F)c2)n(C)c1)C(F)(F)F [Compound 92, N-(3,4-Difluorophenyl)-1-methyl-4-{[(1R)-2,2,2-trifluoro-1-methylethyl]-sulfamoyl}-1H-pyrrole-2-carboxamide]
EC50 [1]: 0.04 µM | EC50 [2]: 0.03 µM | CC50 at 4 days [3]: > 25 µM

C[C@H](NS(=O)(=O)c1cc(C(=O)Nc2ccc(F)c(F)c2)n(C)c1)C(F)(F)F [Compound 93, N-(3,4-Difluorophenyl)-1-methyl-4-{[(1S)-2,2,2-trifluoro-1-methyl-ethyl]sulfamoyl}-1H-pyrrole-2-carboxamide]
EC50 [1]: 0.03 µM | EC50 [2]: 0.03 µM | CC50 at 4 days [3]: > 25 µM

Cc1cc(NC(=O)c2c(F)c(S(=O)(=O)NC3(C)COC3)cn2C)ccc1F [Compound 94, 3-Fluoro-N-(4-fluoro-3-methylphenyl)-1-methyl-4-[(3-methyloxetan-3-yl)sulfamoyl]-1H-pyrrole-2-carboxamide]
EC50 [1]: 0.009 µM | EC50 [2]: 0.01 µM | CC50 at 4 days [3]: > 25 µM

Cn1cc(S(=O)(=O)NC(C)(C)C(F)(F)F)cc1C(=O)Nc1ccc(F)c(F)c1 [Compound 95, N-(3,4-Difluorophenyl)-1-methyl-4-[(2,2,2-trifluoro-1,1-dimethylethyl)-sulfamoyl]-1H-pyrrole-2-carboxamide]
EC50 [1]: 0.13 µM | EC50 [2]: 0.06 µM | CC50 at 4 days [3]: > 25 µM

Cn1cc(S(=O)(=O)NC(C)(C)C(F)(F)F)cc1C(=O)Nc1cc(F)c(F)c(Cl)c1 [Compound 96, N-(3-Chloro-4,5-difluorophenyl)-1-methyl-4-[(2,2,2-trifluoro-1,1-dimethylethyl)sulfamoyl]-1H-pyrrole-2-carboxamide]
EC50 [1]: 0.01 µM | EC50 [2]: 0.03 µM | CC50 at 4 days [3]: 23.7 µM

Cc1cc(NC(=O)c2cc(S(=O)(=O)N[C@H](C)CS(C)(=O)=O)cn2C)ccc1F [Compound 97, N-(4-Fluoro-3-methylphenyl)-1-methyl-4-{[(1R)-1-methyl-2-(methyl-sulfonyl)ethyl]sulfamoyl}-1H-pyrrole-2-carboxamide]
EC50 [1]: 0.03 µM | EC50 [2]: 0.03 µM | CC50 at 4 days [3]: > 25 µM

Cn1cc(S(=O)(=O)NC(C)(C)C)cc1C(=O)Nc1ccc(F)c(OC(F)(F)F)c1 [Compound 98, 4-(tert-Butylsulfamoyl)-N-[4-fluoro-3-(trifluoromethoxy)phenyl]-1-methyl-1H-pyrrole-2-carboxamide]
EC50 [1]: 0.81 µM | EC50 [2]: 0.54 µM | CC50 at 4 days [3]: > 25 µM

Cc1c(F)ccc(NC(=O)c2cc(S(=O)(=O)NC(C)C)cn2C)c1F [Compound 99, N-(2,4-Difluoro-3-methylphenyl)-1-methyl-4-[(1-methylethyl)sulfamoyl]-1H-pyrrole-2-carboxamide]
EC50 [1]: 0.13 µM | EC50 [2]: 0.1 µM | CC50 at 4 days [3]: > 25 µM

C[C@H](NS(=O)(=O)c1cc(C(=O)Nc2cc(F)c(F)c(Br)c2)n(C)c1)C(F)(F)F [Compound 100, N-(3-Bromo-4,5-difluorophenyl)-1-methyl-4-{[(1S)-2,2,2-trifluoro-1-methylethyl]sulfamoyl}-1H-pyrrole-2-carboxamide]
EC50 [1]: 0.06 µM | EC50 [2]: 0.05 µM | CC50 at 4 days [3]: 12.2 µM

C[C@H](NS(=O)(=O)c1cc(C(=O)Nc2ccc(F)c(Br)c2)n(C)c1)C(F)(F)F [Compound 101, N-(3-Bromo-4-fluorophenyl)-1-methyl-4-{[(1S)-2,2,2-trifluoro-1-methylethyl]sulfamoyl}-1H-pyrrole-2-carboxamide]
EC50 [1]: 0.03 µM | EC50 [2]: 0.03 µM | CC50 at 4 days [3]: > 25 µM

C[C@H](NS(=O)(=O)c1cc(C(=O)Nc2ccc(F)c(C#N)c2)n(C)c1)C(F)(F)F [Compound 102, N-(3-Cyano-4-fluorophenyl)-1-methyl-4-{[(1S)-2,2,2-trifluoro-1-methylethyl]sulfamoyl}-1H-pyrrole-2-carboxamide]
EC50 [1]: 0.06 µM | EC50 [2]: 0.06 µM | CC50 at 4 days [3]: > 25 µM

C[C@H](NS(=O)(=O)c1cc(C(=O)Nc2cc(F)c(F)c(Cl)c2)n(C)c1)C(F)(F)F [Compound 103, N-(3-Chloro-4,5-difluorophenyl)-1-methyl-4-{[(1S)-2,2,2-trifluoro-1-methylethyl]sulfamoyl}-1H-pyrrole-2-carboxamide]
EC50 [1]: 0.05 µM | EC50 [2]: 0.02 µM | CC50 at 4 days [3]: > 25 µM

Cc1cc(NC(=O)c2cc(S(=O)(=O)N[C@@H](C)C(F)(F)F)cn2C)cc(F)c1F [Compound 104, N-(3,4-Difluoro-5-methylphenyl)-1-methyl-4-{[(1S)-2,2,2-trifluoro-1-methylethyl]sulfamoyl}-1H-pyrrole-2-carboxamide]
EC50 [1]: 0.02 µM | EC50 [2]: 0.02 µM | CC50 at 4 days [3]: > 25 µM

C[C@H](NS(=O)(=O)c1cc(C(=O)Nc2ccc(F)c(Cl)c2)n(C)c1)C(F)(F)F [Compound 105, N-(3-Chloro-4-fluorophenyl)-1-methyl-4-{[(1S)-2,2,2-trifluoro-1-methylethyl]sulfamoyl}-1H-pyrrole-2-carboxamide]
EC50 [1]: 0.03 µM | EC50 [2]: 0.02 µM | CC50 at 4 days [3]: > 25 µM

Cn1cc(S(=O)(=O)NC2(C)COC2)c(F)c1C(=O)Nc1ccc(F)c(Br)c1 [Compound 106, N-(3-Bromo-4-fluorophenyl)-3-fluoro-1-methyl-4-[(3-methyloxetan-3-yl)sulfamoyl]-1H-pyrrole-2-carboxamide]
EC50 [1]: 0.01 µM | EC50 [2]: 0.01 µM | CC50 at 4 days [3]: > 25 µM

Cn1cc(S(=O)(=O)NC2(C)COC2)c(F)c1C(=O)Nc1ccc(F)c(C(F)F)c1 [Compound 107, N-[3-(Difluoromethyl)-4-fluorophenyl]-3-fluoro-1-methyl-4-[(3-methyloxetan-3-yl)sulfamoyl]-1H-pyrrole-2-carboxamide]
EC50 [1]: 0.01 µM | EC50 [2]: 0.01 µM | CC50 at 4 days [3]: > 25 µM

Cn1cc(S(=O)(=O)NC2(C)COC2)c(F)c1C(=O)Nc1cc(F)c(F)cc1F [Compound 109, 3-Fluoro-1-methyl-4-[(3-methyloxetan-3-yl)sulfamoyl]-N-(2,4,5-trifluorophenyl)-1H-pyrrole-2-carboxamide]
EC50 [1]: 0.24 µM | EC50 [2]: 0.1 µM | CC50 at 4 days [3]: > 25 µM
